As usually defined, the IC50 is the concentration at which inhibition is half-maximal.

Results on twelve compounds are retold here after patent US20170152239A1, “BENZAMIDE AND HETEROBENZAMIDE COMPOUNDS” (PFIZER INC., priority 2012, published 2017).

WT EZH2 (EZH2 4 protein complex: EZH2, EED, SUZ12, RbAp48), sequence (Q15910 whole entry): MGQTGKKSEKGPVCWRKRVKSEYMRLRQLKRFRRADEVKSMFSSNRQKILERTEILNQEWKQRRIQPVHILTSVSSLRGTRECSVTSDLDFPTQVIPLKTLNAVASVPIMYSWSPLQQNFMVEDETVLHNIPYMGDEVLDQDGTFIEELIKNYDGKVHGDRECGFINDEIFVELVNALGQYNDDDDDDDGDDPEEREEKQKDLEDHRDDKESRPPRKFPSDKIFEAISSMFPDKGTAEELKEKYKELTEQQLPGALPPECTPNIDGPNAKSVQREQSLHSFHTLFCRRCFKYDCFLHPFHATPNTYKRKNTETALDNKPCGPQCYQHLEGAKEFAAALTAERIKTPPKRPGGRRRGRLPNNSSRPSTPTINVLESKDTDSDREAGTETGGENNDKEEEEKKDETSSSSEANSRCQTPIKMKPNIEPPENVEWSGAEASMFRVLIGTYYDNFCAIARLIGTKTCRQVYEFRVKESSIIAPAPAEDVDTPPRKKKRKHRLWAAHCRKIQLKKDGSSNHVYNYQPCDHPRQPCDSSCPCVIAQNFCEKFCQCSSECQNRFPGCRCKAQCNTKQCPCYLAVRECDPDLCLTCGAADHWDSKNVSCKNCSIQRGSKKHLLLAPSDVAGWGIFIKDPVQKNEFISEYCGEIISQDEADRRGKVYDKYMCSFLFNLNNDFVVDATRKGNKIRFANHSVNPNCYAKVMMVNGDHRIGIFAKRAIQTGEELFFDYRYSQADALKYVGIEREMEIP
WT EZH2 (EZH2 4 protein complex: EZH2, EED, SUZ12, RbAp48), sequence (O75530 whole entry partner): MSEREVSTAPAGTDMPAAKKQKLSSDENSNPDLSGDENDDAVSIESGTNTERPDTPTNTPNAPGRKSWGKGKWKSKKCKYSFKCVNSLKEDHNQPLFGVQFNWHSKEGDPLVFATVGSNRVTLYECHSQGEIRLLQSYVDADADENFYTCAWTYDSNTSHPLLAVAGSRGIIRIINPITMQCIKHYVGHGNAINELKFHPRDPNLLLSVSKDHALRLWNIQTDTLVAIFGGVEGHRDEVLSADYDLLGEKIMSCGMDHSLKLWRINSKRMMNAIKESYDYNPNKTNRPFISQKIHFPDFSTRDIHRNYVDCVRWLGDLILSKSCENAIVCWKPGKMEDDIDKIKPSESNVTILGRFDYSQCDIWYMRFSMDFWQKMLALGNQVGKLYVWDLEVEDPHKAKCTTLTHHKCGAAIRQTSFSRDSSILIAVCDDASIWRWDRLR
WT EZH2 (EZH2 4 protein complex: EZH2, EED, SUZ12, RbAp48), sequence (Q15022 whole entry partner): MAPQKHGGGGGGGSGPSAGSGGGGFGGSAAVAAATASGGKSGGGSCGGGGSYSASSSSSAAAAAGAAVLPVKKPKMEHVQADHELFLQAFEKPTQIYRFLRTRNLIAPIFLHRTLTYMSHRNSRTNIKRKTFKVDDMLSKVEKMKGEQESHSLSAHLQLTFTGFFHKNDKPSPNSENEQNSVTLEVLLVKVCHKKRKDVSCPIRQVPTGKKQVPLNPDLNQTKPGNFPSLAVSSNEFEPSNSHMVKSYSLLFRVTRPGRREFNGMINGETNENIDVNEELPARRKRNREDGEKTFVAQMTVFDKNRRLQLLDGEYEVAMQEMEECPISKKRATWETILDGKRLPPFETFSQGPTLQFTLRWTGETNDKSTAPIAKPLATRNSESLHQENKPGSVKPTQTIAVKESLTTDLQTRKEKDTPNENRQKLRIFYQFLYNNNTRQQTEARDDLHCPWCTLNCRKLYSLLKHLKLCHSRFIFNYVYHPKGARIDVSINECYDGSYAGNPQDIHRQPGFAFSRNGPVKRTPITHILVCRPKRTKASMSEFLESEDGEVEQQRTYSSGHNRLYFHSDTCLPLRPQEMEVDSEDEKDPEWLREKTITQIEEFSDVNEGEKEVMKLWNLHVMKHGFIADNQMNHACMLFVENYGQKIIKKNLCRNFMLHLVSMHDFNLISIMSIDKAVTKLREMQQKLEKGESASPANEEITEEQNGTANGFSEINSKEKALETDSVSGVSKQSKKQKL
WT EZH2 (EZH2 4 protein complex: EZH2, EED, SUZ12, RbAp48), sequence (Q09028 whole entry partner): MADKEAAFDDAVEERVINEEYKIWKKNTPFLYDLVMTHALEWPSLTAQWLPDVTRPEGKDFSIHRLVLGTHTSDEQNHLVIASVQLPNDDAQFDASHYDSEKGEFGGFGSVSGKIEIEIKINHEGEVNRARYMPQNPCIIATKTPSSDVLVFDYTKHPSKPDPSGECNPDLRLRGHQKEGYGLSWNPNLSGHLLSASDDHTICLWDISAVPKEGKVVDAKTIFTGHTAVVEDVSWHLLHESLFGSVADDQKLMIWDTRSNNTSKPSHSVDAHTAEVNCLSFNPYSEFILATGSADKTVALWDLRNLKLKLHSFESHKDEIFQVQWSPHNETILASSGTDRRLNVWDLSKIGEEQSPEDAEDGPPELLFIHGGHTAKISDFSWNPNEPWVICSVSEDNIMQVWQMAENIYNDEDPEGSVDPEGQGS

This assay has as its target WT EZH2 (EZH2 4 protein complex: EZH2, EED, SUZ12, RbAp48) (Homo sapiens, UniProt O75530+Q09028+Q15022+Q15910). The experiment in a line: WT EZH2 nucleosome assay. Conditions: nucleosome assay, 5 nM EZH2 4-protein complex, 1.5 μM SAM; read-out: WT EZH2 IC50. Format: biochemical. On the procedure:
Nucleosome Assay Protocol:
A. Compound preparation • 1. Prepare 10 mM stock solutions in 100% DMSO from solid material • 2. Serial dilute 10 mM compound stocks either 2 or 3-fold in 100% DMSO to generate compounds for 11 point dose response
B. Reagent preparation • 1. Prepare 1× assay buffer containing 100 mM Tris pH 8.5, 4 mM DTT and 0.01% Tween-20 • 2. Dilute purified HeLA oligonucleosomes and recombinant histone H1 (New England Biolabs) in assay buffer to 1.67×. • 3. Dilute EZH2 4 protein complex (EZH2, EED, SUZ12, RbAp48) to 3.5× in assay buffer • 4. Prepare 10×^3H SAM solution in assay buffer using 0.94 μCi/well of radioactive SAM (Perkin Elmer) and sufficient non-labeled SAM (Sigma) for 1.5 μM final concentration. • 5. Dilute TCA to 20% in DI water
C. Enzyme reaction • 1. Final reaction conditions are 5 nM EZH2 4-protein complex, 1.5 μM SAM, 25 μg/mL oligonucleosomes, 50 nM rH1 in a 50 μl reaction volume. • 2. Add 1 μl of diluted compound to the assay plate (96-well V-bottom polypropylene plates) or 1 μl of DMSO for control wells. • 3. Add 30 μl of nucleosomes to the assay plate • 4. Add 14 μl of EZH2 4 protein complex to the assay plate • 5. Add 5 μl of ^3H SAM to start the reaction. • 6. Stop the reaction after 60 minutes with the addition of 100 μl of 20% TCA • 7. Transfer 150 μl of quenched reaction into a prepared filterplate (Millipore #MSIPN4B10) • 8. Apply vacuum to the filterplate to filter the reaction mix through the membrane. • 9. Wash the filterplate with 8×200 μl of PBS, blot dry and dry in an oven for 30 minutes • 10. Add 50 μl of microscint-20 scintillation fluid (Perkin Elmer) to each well, wait 30 minutes and count on a liquid scintillation counter.
D. Data analysis • 1. IC50 values were determined by fitting the data to a 4-parameter IC50 equation using proprietary curve fitting software.
Wild type (WT) EZH2% Effect at 20 μM and IC50 values (μM) generated in WT EZH2 or EZH2PRC2 mutant Y641N nucleosome assays are provided in Table 3 below. A blank entry in the table indicates the data was not generated in that assay.
For `Cc1cc(C)c(CNC(=O)c2nc(OCc3cncnc3)nc(-c3ccnn3C)c2C)c(=O)[nH]1` [Example 74, N-[(4,6-dimethyl-2-oxo-1,2-dihydropyridin-3-yl)methyl]-5-methyl-6-(1-methyl-1H-pyrazol-5-yl)-2-(pyrimidin-5-ylmethoxy)pyri-midine-4-carboxamide], the half-inhibitory concentration (IC50) was 6.61 µM.
The same measure for `Cc1cc(C)c(CNC(=O)c2nc(Cl)nc(N3C4CCC3CC4)c2C)c(=O)[nH]1` [Example 40, 6-(7-azabicyclo[2.2.1]hept-7-yl)-2-chloro-N-[(4,6-dimethyl-2-oxo-1,2-dihydropyridin-3-yl)methyl]-5-methylpyrimi-dine-4-carboxamide]: 1.03 µM; for `Cc1cc(C)c(CNC(=O)c2nc(OCCN3CC[C@H](F)C3)nc(-c3ccnn3C)c2C)c(=O)[nH]1` [Example 101, N-[(4,6-dimethyl-2-oxo-1,2-dihydropyridin-3-yl)methyl]-2-{2-[(3S)-3-fluoropyrrolidin-1-yl]ethoxy}-5-methyl-6-(1-methyl-1H-pyrazol-5-yl)pyrimidine-4-carboxamide]: 18.4 µM; for `Cc1cc(C)c(CNC(=O)c2ncnc(-c3ccnn3C)c2Cl)c(=O)[nH]1` [Example 115, 5-chloro-N-[(4,6-dimethyl-2-oxo-1,2-dihydropyridin-3-yl)methyl]-6-(1-methyl-1H-pyrazol-5-yl)pyrimidine-4-carboxamide]: 28.7 µM.
With `Cc1cc(C)c(CNC(=O)c2cccc(-c3c(C)cnn3C)c2C)c(=O)[nH]1` [Example 1, N-[(4,6-dimethyl-2-oxo-1,2-dihydropyridin-3-yl)methyl]-3-(1,4-dimethyl-1H-pyrazol-5-yl)-2-methylbenzamide] the figure was 0.47 µM; with `Cc1cc(C)c(CNC(=O)c2ncnc(N3CCC(C)(C)C3)c2C)c(=O)[nH]1` [Example 73, N-[(4,6-dimethyl-2-oxo-1,2-dihydropyridin-3-yl)methyl]-6-(3,3-dimethylpyrroli-din-1-yl)-5-methylpyrimi-dine-4-carboxamide], 6.5 µM; with `Cc1cc(C)c(CNC(=O)c2cc(-c3cnc(N4CCOCC4)nc3)cc(-c3c(C)cnn3C)c2C)c(=O)[nH]1` [Example 21, N-[(4,6-dimethyl-2-oxo-1,2-dihydropyridin-3-yl)methyl]-3-(1,4-dimethyl-1H-pyrazol-5-yl)-2-methyl-5-(2-morpholin-4-ylpyrimidin-5-yl)benzamide], 0.019 µM.
`Cc1cc(C)c(CNC(=O)c2nc(N3C[C@@H]4C[C@H]3CO4)nc(N3CCC[C@@H]3C)c2C)c(=O)[nH]1` [Example 58, N-[(4,6-dimethyl-2-oxo-1,2-dihydropyridin-3-yl)methyl]-5-methyl-6-[(2S)-2 - methylpyrrolidin-1-yl]-2-[(1S,4S)-2-oxa-5-azabicyclo[2.2.1]hept-5-yl]pyrimidine-4-carboxamide]: the IC50 is 3.52 µM.
With `CCOc1nc(C(=O)NCc2c(C)cc(C)[nH]c2=O)c(C)c(-c2ccnn2C)n1` [Example 102, N-[(4,6-dimethyl-2-oxo-1,2-dihydropyridin-3-yl)methyl]-2-ethoxy-5-methyl-6-(1-methyl-1H-pyrazol-5-yl)pyrimidine-4-carboxamide] the figure was 18.6 µM; with `CCCc1cc(C)[nH]c(=O)c1CNC(=O)c1cc(Cl)cc(-c2ccnn2C)c1C` [Example 8, 5-chloro-2-methyl-N-[(6-methyl-2-oxo-4-propyl-1,2-dihydropyridin-3-yl)methyl]-3-(1-methyl-1H-pyrazol-5-yl)benzamide], 0.88 µM.
With `CC(C)Oc1cccc(C(=O)NCc2ccc[nH]c2=O)c1Cl` [Example 139, 2-chloro-3-isopropoxy-N-[(2-oxo-1,2-dihydropyridin-3-yl)methyl]benz-amide] the figure was more than 200 µM; with `Cc1cc(C)c(CNC(=O)c2nc(-c3cnn(C)c3)nc(N3CCOC[C@@H]3C)c2C(F)(F)F)c(=O)[nH]1` [Example 104, N-[(4,6-dimethyl-2-oxo-1,2-dihydropyridin-3-yl)methyl]-6-[(3S)-3-methylmorpho-lin-4-yl]-2-(1-methyl-1H-pyrazol-4-yl)-5-(trifluoromethyl) pyrimidine-4-carboxamide], 19.4 µM.
